Each compound was assayed against benzodiazepine receptor (assay: Benzodiazepine Receptor Binding Assay). Conditions: read-out: BZP-receptor Binding IC50; [3H]-diazepam 1.5 nM; rat brain crude synaptosome membrane; 0° C., 20 min.

| SMILES | IC50 |
| --- | --- |
| CC(C)c1nc(-c2cc3c(-c4cccc(F)c4)nccc3[nH]c2=O)no1 [Example 46] | 2.15 nM |
| O=c1[nH]c2ccnc(-c3ccccc3Cl)c2cc1-c1noc(C2CC2)n1 [Example 117] | 1.41 nM |
| CC(C)c1noc(-c2cc3c(-c4ccccc4F)nccc3[nH]c2=O)n1 [Example 226] | 1.41 nM |
| CCCCCc1nccc2[nH]c(=O)c(-c3noc(CC)n3)cc12 [Example 22] | 3.76 nM |
| Cc1nccc2[nH]c(=O)c(-c3noc(C4CC4)n3)cc12 [Example 1, 3-(5-cyclopropyl-1,2,4-oxadiazol-3-yl)-5-methyl-1,6-naphthyridin-2(1H)-one] | 2.28 nM |
| CCCc1nc(-c2cc3c(-c4ccco4)nccc3[nH]c2=O)no1 [Example 109] | 1.75 nM |
| O=c1[nH]c2ccnc(-c3ccccc3)c2cc1-c1nc(C2CC2)no1 [Example 235] | 0.91 nM |
| CCc1nc(-c2cc3c(-c4ccccc4OC)nccc3[nH]c2=O)no1 [Example 98] | 8.56 nM |
| O=c1[nH]c2ccnc(-c3ccc(Cl)cc3)c2cc1-c1noc(C2CC2)n1 [Example 56] | 2.71 nM |
| CCCc1noc(-c2cc3c(-c4ccccc4F)nccc3[nH]c2=O)n1 [Example 217] | 1.34 nM |
| CCc1noc(-c2cc3c(-c4ccc(Cl)cc4)nccc3[nH]c2=O)n1 [Example 204] | 5.51 nM |
| Cc1cccc(-c2nccc3[nH]c(=O)c(-c4nc(C5CC5)no4)cc23)c1 [Example 243] | 1.81 nM |
| CCc1nc(-c2cc3c(-c4cccc(Cl)c4)nccc3[nH]c2=O)no1 [Example 29] | 5.28 nM |
| CCc1nc(-c2cc3c(-c4ccc(OC)cc4)nccc3[nH]c2=O)no1 [Example 33] | 5.5 nM |
| CCc1noc(-c2cc3c(-c4ccccc4OC)nccc3[nH]c2=O)n1 [Example 208] | 4.14 nM |
| CCCc1nccc2[nH]c(=O)c(-c3noc(C4CC4)n3)cc12 [Example 49] | 1.11 nM |
| O=c1[nH]c2ccnc(-c3cccc(F)c3)c2cc1-c1nc(C2CC2)no1 [Example 237] | 1.86 nM |
| O=c1[nH]c2ccnc(-c3ccc(F)cc3)c2cc1-c1nc(C2CC2)no1 [Example 238] | 1.38 nM |
| CCCc1noc(-c2cc3c(C4CC4)nccc3[nH]c2=O)n1 [Example 215] | 2.47 nM |
| CC(C)c1noc(-c2cc3c(-c4cccs4)nccc3[nH]c2=O)n1 [Example 230] | 0.9 nM |
| O=c1[nH]c2ccnc(-c3cccs3)c2cc1-c1noc(C2CC2)n1 [Example 122] | 0.87 nM |
| O=c1[nH]c2ccnc(-c3ccccc3F)c2cc1-c1noc(C2CC2)n1 [Example 116] | 1.17 nM |

| SMILES | IC50 |
| --- | --- |
| O=c1[nH]c2ccnc(-c3ccco3)c2cc1-c1noc(C2CC2)n1 [Example 121] | 0.78 nM |
| Cc1ccccc1-c1nccc2[nH]c(=O)c(-c3noc(C4CC4)n3)cc12 [Example 118] | 1.28 nM |
| CCCc1nccc2[nH]c(=O)c(-c3noc(CC)n3)cc12 [Example 15] | 6.16 nM |
| CCCc1nc(-c2cc3c(-c4ccsc4)nccc3[nH]c2=O)no1 [Example 111] | 2.06 nM |
| CC(C)c1noc(-c2cc3c(-c4ccsc4)nccc3[nH]c2=O)n1 [Example 231] | 0.71 nM |
| CCc1noc(-c2cc3c(-c4ccccc4C)nccc3[nH]c2=O)n1 [Example 205] | 4.77 nM |
| CC(C)c1noc(-c2cc3c(-c4cccc(F)c4)nccc3[nH]c2=O)n1 [Example 227] | 1.46 nM |
| CCc1noc(-c2cc3c(-c4ccc(F)cc4)nccc3[nH]c2=O)n1 [Example 201] | 1.84 nM |
| CCc1noc(-c2cc3c(-c4ccccc4F)nccc3[nH]c2=O)n1 [Example 199] | 1.55 nM |
| CCc1nc(-c2cc3c(-c4ccc(F)cc4)nccc3[nH]c2=O)no1 [Example 28] | 1.25 nM |
| CCCc1noc(-c2cc3c(-c4cccc(F)c4)nccc3[nH]c2=O)n1 [Example 218] | 2.58 nM |
| CCc1noc(-c2cc3c(-c4cccc(OC)c4)nccc3[nH]c2=O)n1 [Example 209] | 1.28 nM |
| O=c1[nH]c2ccnc(-c3ccccc3F)c2cc1-c1nc(C2CC2)no1 [Example 236] | 1.61 nM |
| CCCc1noc(-c2cc3c(-c4cccs4)nccc3[nH]c2=O)n1 [Example 221] | 0.72 nM |
| CCc1noc(-c2cc3c(-c4ccc(C)cc4)nccc3[nH]c2=O)n1 [Example 207] | 3.42 nM |
| CCCCc1nccc2[nH]c(=O)c(-c3nc(CC)no3)cc12 [Example 195] | 4.01 nM |
| CCc1nc(-c2cc3c(-c4ccccc4)nccc3[nH]c2=O)no1 [Example 26] | 0.67 nM |
| Cc1cccc(-c2nccc3[nH]c(=O)c(-c4noc(C)n4)cc23)c1 [Example 9] | 1.62 nM |
| CC(C)c1noc(-c2cc3c(-c4ccccc4)nccc3[nH]c2=O)n1 [Example 225] | 2.12 nM |
| Cc1ccc(-c2nccc3[nH]c(=O)c(-c4noc(C)n4)cc23)cc1 [Example 10] | 8.08 nM |
| CCCc1noc(-c2cc3c(-c4ccc(F)cc4)nccc3[nH]c2=O)n1 [Example 219] | 2.03 nM |
| CCc1nc(-c2cc3c(-c4cccc(OC)c4)nccc3[nH]c2=O)no1 [Example 99] | 1.67 nM |

| SMILES | IC50 |
| --- | --- |
| CCCc1nc(-c2cc3c(-c4ccc(F)cc4)nccc3[nH]c2=O)no1 [Example 40] | 7.45 nM |
| COc1ccccc1-c1nccc2[nH]c(=O)c(-c3noc(C4CC4)n3)cc12 [Example 119] | 2.53 nM |
| COc1ccc(-c2nccc3[nH]c(=O)c(-c4noc(C5CC5)n4)cc23)cc1 [Example 59] | 1.98 nM |
| CCc1nc(-c2cc3c(C4CC=CCC4)nccc3[nH]c2=O)no1 (centres unmarked) [Example 25] | 1.84 nM |
| Cc1nccc2[nH]c(=O)c(-c3nc(C4CC4)no3)cc12 [Example 232] | 6.48 nM |
| CCc1nc(-c2cc3c(-c4cccc(C)c4)nccc3[nH]c2=O)no1 [Example 31] | 1.64 nM |
| CC(C)c1nc(-c2cc3c(-c4ccccc4F)nccc3[nH]c2=O)no1 [Example 112] | 2.68 nM |
| CCc1nnc(-c2cc3c(-c4ccccc4)nccc3[nH]c2=O)o1 [Example 311] | 1.91 nM |
| CCc1noc(-c2cc3c(C4CCCCC4)nccc3[nH]c2=O)n1 [Example 197] | 1.97 nM |
| CCCc1noc(-c2cc3c(-c4ccccc4)nccc3[nH]c2=O)n1 [Example 216] | 1.17 nM |
| CCc1nc(-c2cc3cnccc3[nH]c2=O)no1 [Example 12] | 7.89 nM |
| CC(C)c1nc(-c2cc3c(-c4cccs4)nccc3[nH]c2=O)no1 [Example 114] | 1.08 nM |
| CCc1nc(-c2cc3c(-c4cccc(F)c4)nccc3[nH]c2=O)no1 [Example 27] | 0.96 nM |
| CC(C)c1nc(-c2cc3c(C4CC4)nccc3[nH]c2=O)no1 [Example 44] | 2.62 nM |
| C=Cc1nc(-c2cc3c(C4CC4)nccc3[nH]c2=O)no1 [Example 61] | 1.04 nM |
| CC(C)c1nc(-c2cc3c(-c4ccco4)nccc3[nH]c2=O)no1 [Example 113] | 2.18 nM |
| O=c1[nH]c2ccnc(C3CC3)c2cc1-c1noc(C2CC2)n1 [Example 51] | 0.79 nM |
| CCCc1nc(-c2cc3c(C4CC4)nccc3[nH]c2=O)no1 [Example 37] | 3.91 nM |
| CCc1nc(-c2cc3c(-c4ccc(Cl)s4)nccc3[nH]c2=O)no1 [Example 104] | 5.18 nM |
| CCCCc1nccc2[nH]c(=O)c(-c3noc(CC)n3)cc12 [Example 19] | 6.37 nM |
| CCCc1nc(-c2cc3c(-c4ccccc4F)nccc3[nH]c2=O)no1 [Example 108] | 2.14 nM |
